We go through 32 molecules from patent US20240287079A1, “6-AMINOPYRAZOLOPYRIMIDINE COMPOUND AND PHARMACEUTICAL USE THEREOF” (Japan Tobacco Inc., priority 2021, published 2024).

This assay concerns the target NLRP3 inflammasome (Homo sapiens (Human), UniProt Q96P20). Kind of assay: Evaluation of NLRP3 inflammasome inhibitory activity (inhibition of IL-1β production in LPS/Nigericin-stimulated THP1-Null cells). The class given is cell-based. To be noted: IL-1β production in THP1-Null cells; for IC50: PMA, LPS 1 μg/mL, Nigericin 7.5 μmol/L, AlphaLISA; for inhibition at 0.0024 µM: test compound 0.0024 μM. The method, boiled down: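 THP1-Null cells primed with 1 μg/mL LPS, then treated with test compound; supernatant IL-1β quantified by AlphaLISA. Inhibition calculated with blank wells as 100% and control wells as 0%.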

Sequence of NLRP3 inflammasome (Q96P20 whole entry): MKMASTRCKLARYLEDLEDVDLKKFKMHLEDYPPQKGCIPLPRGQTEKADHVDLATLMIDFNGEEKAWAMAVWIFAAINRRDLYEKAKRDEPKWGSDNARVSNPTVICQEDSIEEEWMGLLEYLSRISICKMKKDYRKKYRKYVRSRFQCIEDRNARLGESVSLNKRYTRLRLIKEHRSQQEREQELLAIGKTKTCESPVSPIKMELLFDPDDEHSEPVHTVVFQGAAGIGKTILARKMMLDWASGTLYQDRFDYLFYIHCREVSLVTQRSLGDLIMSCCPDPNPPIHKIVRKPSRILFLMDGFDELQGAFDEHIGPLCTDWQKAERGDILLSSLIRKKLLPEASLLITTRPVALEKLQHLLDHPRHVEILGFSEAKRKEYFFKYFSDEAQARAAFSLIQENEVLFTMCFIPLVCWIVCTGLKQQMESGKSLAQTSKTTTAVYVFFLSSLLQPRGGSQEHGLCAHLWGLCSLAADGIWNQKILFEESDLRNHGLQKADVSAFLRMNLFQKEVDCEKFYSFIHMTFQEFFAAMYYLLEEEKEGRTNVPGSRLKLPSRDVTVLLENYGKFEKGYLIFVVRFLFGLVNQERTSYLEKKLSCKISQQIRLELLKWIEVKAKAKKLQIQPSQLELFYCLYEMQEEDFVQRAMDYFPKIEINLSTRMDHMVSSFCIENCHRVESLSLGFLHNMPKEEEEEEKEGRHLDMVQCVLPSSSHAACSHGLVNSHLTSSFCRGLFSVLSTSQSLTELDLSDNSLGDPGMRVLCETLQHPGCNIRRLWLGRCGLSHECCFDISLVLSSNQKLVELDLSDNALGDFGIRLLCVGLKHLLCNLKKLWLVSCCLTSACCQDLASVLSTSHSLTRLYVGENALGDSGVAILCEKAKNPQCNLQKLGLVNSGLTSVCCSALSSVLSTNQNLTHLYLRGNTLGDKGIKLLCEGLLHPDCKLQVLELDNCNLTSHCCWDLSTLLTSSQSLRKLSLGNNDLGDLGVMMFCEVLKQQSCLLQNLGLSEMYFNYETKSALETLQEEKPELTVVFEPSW

For the molecule `Cc1cc(C2=CCCCC2)ccc1-n1cc2c(=O)[nH]c(N3CCCC3)nc2n1` [Example 67], the IC50 was found to be 2300 nM.
With `O=c1[nH]c(N2CCOCC2)nc2nn(-c3ccc(Br)cc3OC3CCC3)cc12` [Example 305], it took 48 nM to reach half-maximal inhibition (IC50).
As for `Cc1cc(Br)cc(C)c1-n1cc2c(=O)[nH]c(N3CC4CC(C3)O4)nc2n1` [Example 211], inhibition was half-maximal at 4.6 nM (IC50). This IC50 is about 10-fold lower than that of the molecule before.
On the same count and under the same terms, as for `Cc1cc(Br)cc(C)c1-n1cc2c(=O)[nH]c(NCCOCCO)nc2n1` [Example 360], the figure is 6.1 nM.
`Cc1cc(Br)ccc1-n1cc2c(=O)[nH]c(N3CCC(C#N)C3)nc2n1` (racemic) [Example 90] displayed an IC50 of 4.9 nM.
Molecule `Cc1ccc(C(F)(F)F)c(-n2cc3c(=O)[nH]c(N4CCOCC4)nc3n2)c1` [Example 341] had an IC50 of 270 nM. Compared with the last molecule, the IC50 is about 55-fold higher.
In turn, `Cc1cc(C2CC2)cc(Cl)c1-n1cc2c(=O)[nH]c(N3CCOCC3)nc2n1` [Example 147] returned an inhibition at 0.0024 µM of 54%.
Molecule `O=c1[nH]c(N2CCOCC2)nc2nn(-c3ccc(C4CC4)cc3C3CC3)cc12` [Example 210] showed an IC50 of 7.3 nM.
The molecule `O=c1[nH]c(N2CCOCC2)nc2nn(-c3ccc(C4CC4)cc3OC(F)(F)F)cc12` [Example 208] registered an IC50 of 14 nM.
On the same count and under the same terms, as for `Cc1cc(Br)ccc1-n1cc2c(=O)[nH]c(N3CCN(c4ncccn4)CC3)nc2n1` [Example 149], the figure is 21 nM; as for `COC(c1cc(C2CC2)ccc1-n1cc2c(=O)[nH]c(N3C[C@H]4C[C@@H]3CO4)nc2n1)C1CC1` (some centres unmarked) [Example 315], 670 nM; as for `Cc1cc(Br)ccc1-n1cc2c(=O)[nH]c(N3CCN(C4CC4)C(=O)C3)nc2n1` [Example 152], 77 nM.
In the case of `Cc1cc(Br)ccc1-n1cc2c(OC(C)C)nc(N3CCOCC3)nc2n1` [Example 136], the IC50 was 230 nM. This IC50 lies about 3-fold higher than the previous one.
In turn, `Cc1cc(C2CC2)ncc1-n1cc2c(=O)[nH]c(N3CCOCC3)nc2n1` [Example 202] showed a half-inhibitory concentration (IC50) of 640 nM.
Still for that read-out and setting: for `O=c1[nH]c(N2CCCC2)nc2nn(-c3ccccc3OC(F)(F)F)cc12` [Example 9] the value was 1200 nM; for `Cc1cc(Br)cc(C)c1-n1cc2c(=O)[nH]c(N(CCO)CCO)nc2n1` [Example 361], 13 nM; for `COc1cc(Cl)ccc1-n1cc2c(=O)[nH]c(N3CCCC3)nc2n1` [Example 205], 32 nM.
The same measure, in the same setting: as for `O=c1[nH]c(N2CC3(CC(O)C3)C2)nc2nn(-c3ccc(C(F)(F)F)cc3Cl)cc12` [Example 183], the figure is 15 nM.
In turn, `Cc1cc(Br)ccc1-n1cc2c(=O)[nH]c(N3CC4CC(C3)O4)nc2n1` [Example 169] gave an IC50 of 17 nM.
Same read-out and setting: for `COc1cc(C)c(-n2cc3c(=O)[nH]c(N4CCOCC4)nc3n2)c(C)c1` [Example 253] the value was 24 nM.
`Cc1cc(CC(F)F)cc(C)c1-n1cc2c(=O)[nH]c(N3CCOCCO3)nc2n1` [Example 358] yielded an IC50 of 800 nM.
For the molecule `Cc1cc(Br)cc(C)c1-n1cc2c(=O)[nH]c(N3CC(F)C3)nc2n1` [Example 198], the midpoint of inhibition, the IC50, lay at 8 nM.
The molecule `Cc1cc(Br)cc(C)c1-n1cc2c(=O)[nH]c(NCCO)nc2n1` [Example 359] gave an inhibition at 0.0024 µM of 69%.
Turning to `COc1nc(N2CCOCC2)nc2nn(-c3ccc(Br)cc3C)cc12` [Example 89, 4-(2-(4-bromo-2-methylphenyl)-4-methoxy-2H-pyrazolo[3,4-d]pyrimidin-6-yl)morpholine], for the setting “test compound 0.024 μM”, the inhibition at 0.024 µM came out at 77%.
As to `Cc1cc(Cl)cc(C(=O)C2CC2)c1-n1cc2c(=O)[nH]c(N3CCOCC3)nc2n1` [Example 167], the half-inhibitory concentration (IC50) was determined as 430 nM.
`Cc1ccccc1-n1cc2c(=O)[nH]c(N3CCCCC3)nc2n1` [Example 15] showed an IC50 of 1500 nM.
Still for that read-out and setting: as for `Cc1cc(C2CC2)cc(C)c1-n1cc2c(=O)[nH]c(N3C[C@@H]4C[C@H]3CO4)nc2n1` [Example 207], the figure is 5.9 nM.
The molecule `CC(O)c1cc(Br)ccc1-n1cc2c(=O)[nH]c(N3CCOCC3)nc2n1` (racemic) [Example 130] showed an IC50 of 63 nM.
In turn, `COCc1cc(Cl)ccc1-n1cc2c(=O)[nH]c(N3CC(F)(F)C3)nc2n1` [Example 161] registered a half-inhibitory concentration (IC50) of 22 nM.
Same read-out and setting: for `Cc1cc(C2CC2)cc(Cl)c1-n1cc2c(=O)[nH]c(N3C[C@H]4C[C@@H]3CO4)nc2n1` [Example 287] the value was 9.6 nM; for `Cc1cc(Br)cc(Cl)c1-n1cc2c(=O)[nH]c(N3CC4CC(C3)O4)nc2n1` [Example 296], 14 nM.
Turning to `COC1CCCN(c2nc3nn(-c4c(C)cc(C)cc4C)cc3c(=O)[nH]2)C1` (racemic) [Example 108], the IC50 is 200 nM.

The IC50 is the midpoint of a concentration-inhibition curve. For orientation: inhibition means the percentage by which the read-out fell short of the control. A lower inhibition goes with a response near the control.
